US5773646A, “Meta-substituted phenylene derivatives” (G. D. Searle & Co., priority 1997, dated 1998)
Structures can show the parent of a compound that is named as a salt. One block for each compound: values may come before it.

How the values were obtained:
[1] = biological target: T1, Human vitronectin receptor (αv β3) (Homo sapiens, UniProt P05106+P06756); assay: Vitronectin adhesion assay (solid phase receptor assay, biotinylated vitronectin competition); type: binding; conditions: inhibition of 50% of the maximum binding of biotinylated vitronectin; 1 nM labeled ligand, 2 hours, room temperature, highest concentration of test compound 1.0×10^-4 M; read-out: AvB3 IC50
T1 construct: Human vitronectin receptor(αv β3) was purified from human placenta; from tissue; host or cells: human placenta
Outline: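 Placenta-purified αvβ3 coated at 1.0 μg/mL in TBS (1 mM Ca, Mg, Mn, pH 7.4), overnight 4 °C. Compound competed 2 h at RT with 1 nM biotinylated vitronectin (final; top compound 1.0×10^-4 M); bound ligand detected by HRP anti-biotin/OPD at 450 nm, normalized to no-competitor controls, four-parameter fit.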

[2] = biological target: T2, Human fibrinogen receptor (αIIb β3) (Homo sapiens, UniProt P05106+P08514); assay: Purified IIb/IIIa receptor assay (solid phase receptor assay, biotinylated vitronectin competition); conditions: inhibition of 50% of the maximum binding of biotinylated vitronectin; 1 nM labeled ligand, 2 hours, room temperature, highest concentration of test compound 1.0×10^-4 M
T2 construct: Human fibrinogen receptor (αIIb β3) was purified from outdated platelets; from tissue; host or cells: outdated human platelets
Outline: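 Platelet-purified αIIbβ3 was coated at 100 ng/well in TBS with 1 mM Ca²⁺/Mg²⁺/Mn²⁺, pH 7.4, then BSA-blocked. Compound (up to 1.0×10⁻⁴ M final) competed with 1 nM biotinylated vitronectin for 2 h at room temperature. Bound ligand was detected with HRP anti-biotin at A450, normalized to maximum binding, and curve-fitted.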

- IC50 [1]: 1680 nM
- IC50 [2]: 12700 nM
Structure (SMILES): N=C(N)Nc1cccc(C(=O)NCc2cccc(CC(=O)O)c2)c1 [Example 49, 3-[[[[3-[(aminoiminomethyl)amino]phenyl]carbonyl]amino]methyl]benzeneacetic acid, trifluoroacetate salt]

- IC50 [1]: 6.88 nM
- IC50 [2]: 1310 nM
Structure (SMILES): C[C@H](CC(=O)O)c1cccc(CNC(=O)c2cccc(NC(=N)N)c2)c1 [Example 56, 3-[[[[3-[(aminoiminomethyl)amino]phenyl]carbonyl]amino]methyl]-βR-methylbenzenepropanoic acid, trifluoroacetate salt hydrate]

- IC50 [1]: 19.8 nM
- IC50 [2]: 145 nM
Structure (SMILES): N=C(N)Nc1cccc(C(=O)NCc2cccc(C(CC(=O)O)c3cc(Cl)cc(Cl)c3)c2)c1 (stereo not shown) [Example 54]

- IC50 [1]: 23.5 nM
- IC50 [2]: 454 nM
Structure (SMILES): COc1ccccc1C(CC(=O)O)c1cccc(CNC(=O)c2cccc(NC(=N)N)c2)c1 (racemic) [Example 63, (±) -[3-[[[[3-[(aminoiminomethyl)amino]phenyl]carbonyl]amino]methyl]phenyl]-2-methoxybenzene propanoic acid, trifluoroacetate salt hydrate]

- IC50 [1]: 1710 nM
- IC50 [2]: 7660 nM
Structure (SMILES): COc1ccc2[nH]c(Nc3cccc(C(=O)NCc4cccc(C(C)CC(=O)O)c4)c3)nc2c1 (racemic) [Example 70, (±) 3-[[[[3-[(5-methoxy-1H-benzimidazol-2-yl)amino]phenyl]carbonyl]amino]methyl]-β-methyl benzenepropanoic acid, trifluoroacetate salt]

- IC50 [1]: > 100000 nM
- IC50 [2]: 55500 nM
Structure (SMILES): N=C(N)Nc1cccc(C(=O)Nc2cccc(CC(=O)O)c2)c1 [Example 50, 3-[[[3-[(aminoiminomethyl)amino]phenyl]carbonyl]amino]benzeneacetic acid, trifluoroacetate salt]

- IC50 [1]: 11300 nM
- IC50 [2]: > 100000 nM
Structure (SMILES): CCOC(=O)CC(CC)c1cccc(CNC(=O)c2cccc(NC(=N)N)c2)c1 (stereo not drawn) [Example 41, ethyl 3-[[[[3-[(aminoiminomethyl)amino]phenyl]carbonyl]amino]methyl)-β-ethylbenzenepropanoate, trifluoroacetate salt]

- IC50 [1]: 3090 nM
- IC50 [2]: 10700 nM
Structure (SMILES): N=C(N)Nc1cccc(NC(=O)Nc2cccc(CCC(=O)O)c2)c1 [Example 51, 3-[[[[3-[(aminoiminomethyl)amino]phenyl]amino]carbonyl]amino]benzenepropanoic acid, trifluoroacetate salt]

- IC50 [1]: 2930 nM
- IC50 [2]: 66100 nM
Structure (SMILES): CCOC(=O)CCc1cccc(CNC(=O)c2cccc(NC(=N)N)c2)c1 [Example 34, ethyl 3-[[[[3-[(aminoiminomethyl)amino]phenyl]carbonyl]amino]methyl]benzenepropanoate, trifluoroacetate salt]

- IC50 [1]: 7.18 nM
- IC50 [2]: 798 nM
Structure (SMILES): CC(C)C(CC(=O)O)c1cccc(CNC(=O)c2cccc(NC(=N)N)c2)c1 (stereo not drawn) [Example 43, 3-[[[[3-[(aminoiminomethyl)amino]phenyl]carbonyl]amino]methyl]-β-(1-methylethyl) benzenepropanoic acid, trifluoroacetate salt]

- IC50 [1]: 1670 nM
- IC50 [2]: 2640 nM
Structure (SMILES): N=C(N)Nc1cccc(NC(=O)NCc2cccc(CCC(=O)O)c2)c1 [Example 53, 3-[[[[[3-[(aminoiminomethyl)amino]phenyl]amino]carbonyl]amino]methyl]benzenepropanoic acid, trifluoroacetate salt]

- IC50 [1]: 189 nM
- IC50 [2]: 17600 nM
Structure (SMILES): C[C@@H](CC(=O)O)c1cccc(CNC(=O)c2cccc(NC(=N)N)c2)c1 [Example 57, 3-[[[[3-[(aminoiminomethyl)amino]phenyl]carbonyl]amino]methyl]-βS-methylbenzenepropanoic acid]

- IC50 [1]: 11.6 nM
- IC50 [2]: 5180 nM
Structure (SMILES): CCC(CC(=O)O)c1cccc(CNC(=O)c2ccc(Cl)c(NC(=N)N)c2)c1 (racemic) [Example 58, (±) 3-[[[[3-[(aminoiminomethyl)amino]-4-chlorophenyl]carbonyl]amino]methyl]-β-ethylbenzenepropanoic acid, trifluoroacetate salt]

Second part, the compound before the results:

Structure (SMILES): O=C(O)CCc1cccc(CNC(=O)c2cccc(NC(=O)NCc3ccccc3)c2)c1 [Example 31, 3-[[[[3-[[[(phenylmethyl)amino]carbonyl]amino]phenyl]carbonyl]amino]methyl]benzenepropanoic acid]
- IC50 [1]: 3570 nM
- IC50 [2]: 5360 nM

Structure (SMILES): N=C(N)Nc1cccc(S(=O)(=O)Nc2cccc(C(CC(=O)O)c3ccc(F)cc3)c2)c1 (stereo not drawn) [Example 79, β-[3-[[[3-[(aminoiminomethyl)amino]phenyl]sulfonyl]amino]phenyl]-4-fluorobenzenepropanoic Acid, Trifluoroacetate Salt]
- IC50 [1]: 10 nM
- IC50 [2]: 327 nM

Structure (SMILES): O=C(O)CC(c1cc(F)cc(F)c1)c1cccc(NS(=O)(=O)c2cccc(NC=NCc3ccccc3)c2)c1 (stereo not drawn) [Example 84, 3,5-difluoro-β-[3-[[[3-[[[(phenylmethyl)imino]methyl]amino]phenyl]sulfonyl]amino]phenyl]benzenepropanoic Acid, Trifluoroacetate Salt]
- IC50 [1]: 82 nM
- IC50 [2]: 15100 nM

Structure (SMILES): N=C(N)Nc1cccc(S(=O)(=O)Nc2cccc(C(CC(=O)O)c3c(F)c(F)cc(F)c3F)c2)c1 (stereo not drawn) [Example 82, β-[3-[[[3-[(aminoiminomethyl)amino]phenyl]sulfonyl]amino]phenyl]-2,3,5,6-tetrafluorobenzenepropanoic Acid, Trifluoroacetate Salt]
- IC50 [1]: 191 nM
- IC50 [2]: 11700 nM

Structure (SMILES): N=C(N)Nc1cccc(NC(=O)Nc2cccc(OCC(=O)O)c2)c1 [Example 52, [3-[[[[3-[(aminoiminomethyl)amino]phenyl]amino]carbonyl]amino]phenoxy]acetic acid, trifluoroacetate salt]
- IC50 [1]: 16600 nM
- IC50 [2]: 39700 nM

Structure (SMILES): N=C(N)Nc1cc(C(=O)NCc2cccc(C(CC(=O)O)c3cc(F)cc(F)c3)c2)cc(C(F)(F)F)c1 (racemic) [Example 61, (±) β-[3-[[[[3-[(aminoiminomethyl)amino]-5-(trifluoromethyl)phenyl]carbonyl]amino]methyl]phenyl]-3,5-difluorobenzenepropanoic acid, trifluoroacetate salt hydrate]
- IC50 [1]: 1.33 nM
- IC50 [2]: 712 nM

Structure (SMILES): NC(=O)Nc1cccc(C(=O)Nc2cccc(C(CC(=O)O)c3ccccc3)c2)c1 (stereo not drawn) [Example 5, 3-[[[3-[(aminocarbonyl)amino]phenyl]carbonyl]amino]-β-phenylbenzenepropanoic acid]
- IC50 [1]: 15300 nM
- IC50 [2]: 21600 nM

Structure (SMILES): CC(C)(C)OC(=O)CC(c1ccccc1)c1cccc(NS(=O)(=O)c2cccc(NC(N)=NC#N)c2)c1 (stereo not shown) [Example 15]
- IC50 [1]: 40.4 nM
- IC50 [2]: 1360 nM

Structure (SMILES): O=C(O)CC(c1cc(F)cc(F)c1)c1cccc(NS(=O)(=O)c2cccc(NC(=S)NCc3ccccc3)c2)c1 (stereo not drawn) [Example 83, 3,5-difluoro-β-[3-[[[3-[[[(phenylmethyl)amino]thiocarbonyl]amino]phenyl]sulfonyl]amino]phenyl]benzenepropanoic Acid]
- IC50 [1]: 122 nM
- IC50 [2]: 18900 nM

Structure (SMILES): O=C1CC(c2cccc(NS(=O)(=O)c3cccc(NC4=NCCN4)c3)c2)c2ccccc2O1 (stereo not shown) [Example 101, 3-[(4,5-dihydro-1H-imidazol-2-yl)amino]-N-[3-(3,4-dihydro-2-oxo-2H-benzopyran-4-yl)phenyl]benzenesulfonamide, Trifluoroacetate Salt]
- IC50 [1]: 50.3 nM
- IC50 [2]: 3250 nM

Structure (SMILES): N=C(N)Nc1cccc(S(=O)(=O)Nc2cccc(C(CC(=O)O)c3cc(F)cc(F)c3)c2)c1 (stereo not drawn) [Example 78, β-[3-[[[3-[(aminoiminomethyl)amino]phenyl]sulfonyl]amino]phenyl]-3,5-difluorobenzenepropanoic Acid, Trifluoroacetate Salt]
- IC50 [1]: 2.54 nM
- IC50 [2]: 803 nM

Structure (SMILES): N=C(N)Nc1cccc(COc2cccc(C(CC(=O)O)c3ccccc3)c2)c1 (stereo not drawn) [Example 96, 3-[[3-[(aminoiminomethyl)amino]phenyl]methoxy]-β-phenylbenzenepropanoic Acid, Trifluoroacetate Salt]
- IC50 [1]: 435 nM
- IC50 [2]: 2280 nM

Structure (SMILES): O=C(O)CCc1cccc(OCC(O)c2cccc(NC3=NCCN3)c2)c1 (stereo not shown) [Example 71, 3-[2-[3-[(4,5-dihydro-1H-imidazol-2-yl)amino]phenyl]-2-hydroxyethoxy]benzenepropanoic acid, trifluoroacetate salt]
- IC50 [1]: 30.4 nM
- IC50 [2]: 9750 nM

Structure (SMILES): N=C(N)Nc1cccc(S(=O)(=O)Nc2cccc(C(CC(=O)O)c3c(F)c(F)c(F)c(F)c3F)c2)c1 (stereo not drawn) [Example 81, β-[3-[[[3-[(aminoiminomethyl)amino]phenyl]sulfonyl]amino]phenyl]perfluorobenzenepropanoic Acid, Trifluoroacetate Salt]
- IC50 [1]: 86 nM
- IC50 [2]: 2550 nM

Structure (SMILES): N=C(N)Nc1cccc(S(=O)(=O)Nc2cccc(C(CC(=O)O)c3ccccc3)c2)c1 (stereo not drawn) [Example 1, 3-[[[3-[(aminoiminomethyl)amino]phenyl]sulfonyl]amino]-β-phenylbenzenepropanoic acid, trifluoroacetate salt]
- IC50 [1]: 16.7 nM
- IC50 [2]: 625 nM

Structure (SMILES): CCOC(=O)CCc1cccc(CNC(=O)c2cccc(C#N)c2)c1 [Example 19, ethyl 3-[[[[3-(cyano)phenyl]carbonyl]amino]methyl]benzenepropanoate, diacetate salt]
- IC50 [1]: > 100000 nM
- IC50 [2]: 57600 nM
